In PMC3433414, “Oral Administration of the Pimelic Diphenylamide HDAC Inhibitor HDACi 4b Is Unsuitable for Chronic Inhibition of HDAC Activity in the CNS In Vivo” (PLoS ONE, 2012):
Where two headings read alike, the source gives them in different places. Values belong to the compound of their own block, whether it stands above or below them.

Columns and labels:
Plasma stability = format: in vitro ADME, mouse; conditions: fresh mouse plasma, 5 µM; for half-life at 5 µM: pooled mouse plasma, duplicates
Protocol: Incubations of test compound (5 µM initial concentration, n = 2) were carried out with pooled mouse plasma or BSA (45 mg/mL in 0.1 M phosphate buffered saline). The incubations were performed at 37°C. Samples (50 µL) were obtained from the incubation at 0, 10, 30, 120, 240, 360 and 1440 min, and added to 150 µL of acetonitrile containing carbamazepine as analytical internal standard to terminate the reaction. Samples were centrifuged and the supernatant fractions analysed by LC-MS/MS.
For half-life determinations, the instrument responses (peak areas) normalized for internal standard response, were referenced to the zero time-point samples (as 100%) in order to determine the percentage of compound remaining. Ln plots of the % remaining, for each compound, were used to determine the half-life for the plasma incubations. Half-life values were calculated from the relationship:-. [drawing 1] Where λ was the slope of the natural logarithmic (Ln) concentration vs time curve.
When quantification was required, calibration standards for parent compound and metabolites were prepared in control plasma and extracted and analysed as described for the study samples. Quantification of parent compound or metabolite was by extrapolation from the calibration line.

[1] = system: Ca2+ channel (L, verapamil site) (phenylalkylamine); assay: Cerep binding, antagonist radioligand; conditions: 10 μM
Description: (§1) In addition to the HDAC profiling performed, we also queried 4b for any apparent potential off-target effects, which could complicate any finding of efficacy or adverse events in vivo due to ‘polypharmacy’. This was accomplished by screening against a ‘diversity panel’ of 72 binding and 29 enzyme assays, comprised of roughly equal numbers of selective central and peripheral therapeutically relevant targets (Cerep Diversity Profile). This panel included representative targets from diverse enzyme families, G protein coupled receptors, steroid nuclear receptors, voltage- and ligand-gated ion channels. While not totally inclusive, it is a useful tool for discovery compounds to assess their viability as proof of concept molecules to specifically query a particular target. 4b was initially screened at 10 µM in duplicate. The full set of results is provided as Table S1. […] This clean in vitro profile was considered acceptable to proceed to ADME and pharmacokinetic studies.

D2S (h) = molecular target: T1, D2S (h) (Homo sapiens, UniProt P14416); assay: Cerep binding, antagonist radioligand; conditions: read-out: % inhibition of control specific binding
T1 construct: purchased Cerep (Diversity Profile)
Description: as §1

[2] = molecular target: T2, norepinephrine transporter (h) (Homo sapiens, UniProt P23975); assay: Cerep binding, antagonist radioligand; conditions: read-out: % inhibition of control specific binding
T2 construct: purchased Cerep (Diversity Profile)
T2 sequence (P23975 whole entry): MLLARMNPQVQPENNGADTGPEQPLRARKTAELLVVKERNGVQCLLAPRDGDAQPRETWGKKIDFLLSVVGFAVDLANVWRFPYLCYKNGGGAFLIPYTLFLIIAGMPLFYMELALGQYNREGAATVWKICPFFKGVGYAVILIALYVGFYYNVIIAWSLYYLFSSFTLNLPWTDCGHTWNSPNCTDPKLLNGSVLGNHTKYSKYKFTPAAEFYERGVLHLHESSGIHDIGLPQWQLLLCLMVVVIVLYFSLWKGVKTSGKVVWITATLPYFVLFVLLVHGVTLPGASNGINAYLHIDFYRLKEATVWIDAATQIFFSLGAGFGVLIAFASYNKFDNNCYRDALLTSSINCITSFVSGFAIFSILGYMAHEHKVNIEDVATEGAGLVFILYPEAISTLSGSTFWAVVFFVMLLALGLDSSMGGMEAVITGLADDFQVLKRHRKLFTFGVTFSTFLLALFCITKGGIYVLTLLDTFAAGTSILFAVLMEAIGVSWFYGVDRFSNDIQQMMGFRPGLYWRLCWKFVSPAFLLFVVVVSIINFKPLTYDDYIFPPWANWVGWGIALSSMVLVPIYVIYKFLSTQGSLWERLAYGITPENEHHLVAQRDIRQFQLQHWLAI
Description: as §1

2 (h) = molecular target: T3, 2 (h) (Homo sapiens, UniProt P07550); assay: Cerep binding, agonist radioligand; conditions: read-out: % inhibition of control specific binding
T3 construct: purchased Cerep (Diversity Profile)
T3 sequence (P07550 whole entry): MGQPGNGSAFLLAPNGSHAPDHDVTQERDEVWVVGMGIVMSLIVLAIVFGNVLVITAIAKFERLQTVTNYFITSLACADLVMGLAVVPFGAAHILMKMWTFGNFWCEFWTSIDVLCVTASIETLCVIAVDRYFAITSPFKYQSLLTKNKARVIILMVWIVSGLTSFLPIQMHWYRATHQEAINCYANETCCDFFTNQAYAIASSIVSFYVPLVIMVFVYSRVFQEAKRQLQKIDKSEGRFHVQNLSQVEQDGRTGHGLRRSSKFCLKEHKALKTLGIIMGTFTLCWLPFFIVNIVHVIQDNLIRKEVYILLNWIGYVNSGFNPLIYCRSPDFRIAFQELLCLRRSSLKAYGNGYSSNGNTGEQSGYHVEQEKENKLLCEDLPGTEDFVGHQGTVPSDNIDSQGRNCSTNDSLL
Description: as §1

A2A (h) = molecular target: T4, A2A (h) (Homo sapiens, UniProt P29274); assay: Cerep binding, agonist radioligand; conditions: read-out: % inhibition of control specific binding
T4 construct: purchased Cerep (Diversity Profile)
Description: as §1

A3 (h) = molecular target: T5, A3 (h) (Homo sapiens, UniProt P0DMS8); assay: Cerep binding, agonist radioligand; conditions: read-out: % inhibition of control specific binding
T5 construct: purchased Cerep (Diversity Profile)
T5 sequence (P0DMS8 whole entry): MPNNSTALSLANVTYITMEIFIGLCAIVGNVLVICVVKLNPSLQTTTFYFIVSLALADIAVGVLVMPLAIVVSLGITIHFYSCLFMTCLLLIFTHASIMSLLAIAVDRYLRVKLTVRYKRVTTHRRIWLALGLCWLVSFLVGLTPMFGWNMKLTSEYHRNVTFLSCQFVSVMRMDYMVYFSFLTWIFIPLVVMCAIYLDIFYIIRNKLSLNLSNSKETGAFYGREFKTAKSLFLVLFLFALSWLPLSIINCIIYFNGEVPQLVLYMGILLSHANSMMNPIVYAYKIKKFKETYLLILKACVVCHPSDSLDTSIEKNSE
Description: as §1

AT2 (h) = molecular target: T6, AT2 (h) (Homo sapiens, UniProt P50052); assay: Cerep binding, agonist radioligand; conditions: read-out: % inhibition of control specific binding
T6 construct: purchased Cerep (Diversity Profile)
T6 sequence (P50052 whole entry): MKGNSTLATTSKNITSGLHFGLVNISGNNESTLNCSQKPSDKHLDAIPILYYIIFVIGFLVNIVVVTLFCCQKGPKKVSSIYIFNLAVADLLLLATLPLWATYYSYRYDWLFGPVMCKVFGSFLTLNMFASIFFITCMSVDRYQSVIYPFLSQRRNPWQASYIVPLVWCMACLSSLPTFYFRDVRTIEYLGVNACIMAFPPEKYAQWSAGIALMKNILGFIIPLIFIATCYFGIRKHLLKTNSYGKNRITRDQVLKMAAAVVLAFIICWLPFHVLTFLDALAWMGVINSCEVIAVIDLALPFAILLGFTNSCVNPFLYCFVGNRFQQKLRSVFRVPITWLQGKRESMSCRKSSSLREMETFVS
Description: as §1

BLT1 (LTB4) (h) = molecular target: T7, BLT1 (LTB4) (h) (Homo sapiens, UniProt Q15722); assay: Cerep binding, agonist radioligand; conditions: read-out: % inhibition of control specific binding
T7 construct: purchased Cerep (Diversity Profile)
T7 sequence (Q15722 whole entry): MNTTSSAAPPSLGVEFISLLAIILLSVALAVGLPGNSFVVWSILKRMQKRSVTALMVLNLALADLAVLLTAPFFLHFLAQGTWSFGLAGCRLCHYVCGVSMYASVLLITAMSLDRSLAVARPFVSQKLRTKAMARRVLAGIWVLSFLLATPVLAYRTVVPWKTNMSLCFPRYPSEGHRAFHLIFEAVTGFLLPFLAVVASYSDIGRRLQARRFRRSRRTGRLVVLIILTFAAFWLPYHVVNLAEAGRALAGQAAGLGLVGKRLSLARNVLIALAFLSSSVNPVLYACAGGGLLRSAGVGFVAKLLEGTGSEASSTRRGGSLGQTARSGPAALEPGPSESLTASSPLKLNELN
Description: as §1

CB1 (h) = molecular target: T8, CB1 (h) (Homo sapiens, UniProt P21554); assay: Cerep binding, agonist radioligand; conditions: read-out: % inhibition of control specific binding
T8 construct: purchased Cerep (Diversity Profile)
Description: as §1

CB2 (h) = molecular target: T9, CB2 (h) (Homo sapiens, UniProt P34972); assay: Cerep binding, agonist radioligand; conditions: read-out: % inhibition of control specific binding
T9 construct: purchased Cerep (Diversity Profile)
T9 sequence (P34972 whole entry): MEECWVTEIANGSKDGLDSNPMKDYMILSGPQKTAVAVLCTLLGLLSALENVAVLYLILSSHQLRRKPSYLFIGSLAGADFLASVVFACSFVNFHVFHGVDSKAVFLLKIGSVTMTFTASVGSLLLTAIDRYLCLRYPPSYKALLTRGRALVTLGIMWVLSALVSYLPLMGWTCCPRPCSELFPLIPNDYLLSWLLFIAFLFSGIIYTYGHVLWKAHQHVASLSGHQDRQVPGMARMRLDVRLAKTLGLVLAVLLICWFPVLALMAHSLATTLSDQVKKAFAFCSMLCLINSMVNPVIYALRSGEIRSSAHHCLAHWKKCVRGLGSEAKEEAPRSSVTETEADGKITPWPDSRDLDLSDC
Description: as §1

CCK2 (CCKB) (h) = molecular target: T10, CCK2 (CCKB) (h) (Homo sapiens, UniProt P32239); assay: Cerep binding, agonist radioligand; conditions: read-out: % inhibition of control specific binding
T10 construct: purchased Cerep (Diversity Profile)
T10 sequence (P32239 whole entry): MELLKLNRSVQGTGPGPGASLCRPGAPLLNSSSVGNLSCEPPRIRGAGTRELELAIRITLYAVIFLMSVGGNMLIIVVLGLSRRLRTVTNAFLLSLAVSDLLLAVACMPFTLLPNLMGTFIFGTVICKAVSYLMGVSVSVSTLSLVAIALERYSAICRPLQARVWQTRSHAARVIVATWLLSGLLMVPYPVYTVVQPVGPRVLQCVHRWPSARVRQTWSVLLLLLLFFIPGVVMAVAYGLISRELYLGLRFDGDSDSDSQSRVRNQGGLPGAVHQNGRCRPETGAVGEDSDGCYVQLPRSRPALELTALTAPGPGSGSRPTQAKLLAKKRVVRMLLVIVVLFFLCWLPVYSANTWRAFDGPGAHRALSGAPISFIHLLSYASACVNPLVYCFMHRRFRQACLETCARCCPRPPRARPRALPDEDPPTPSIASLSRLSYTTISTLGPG
Description: as §1

CysLT1 (LTD4) (h) = molecular target: T11, CysLT1 (LTD4) (h) (Homo sapiens, UniProt Q9Y271); assay: Cerep binding, agonist radioligand; conditions: read-out: % inhibition of control specific binding
T11 construct: purchased Cerep (Diversity Profile)
Description: as §1

EP2 (h) = molecular target: T12, EP2 (h) (Homo sapiens, UniProt P43116); assay: Cerep binding, agonist radioligand; conditions: read-out: % inhibition of control specific binding
T12 construct: purchased Cerep (Diversity Profile)
Description: as §1

GABA (non‐selective) = assay: Cerep binding, agonist radioligand; conditions: 10 μM
Description: as §1

H3 (h) = molecular target: T13, H3 (h) (Homo sapiens, UniProt Q9Y5N1); assay: Cerep binding, agonist radioligand; conditions: read-out: % inhibition of control specific binding
T13 construct: purchased Cerep (Diversity Profile)
Description: as §1

MC4 (h) = molecular target: T14, MC4 (h) (Homo sapiens, UniProt P32245); assay: Cerep binding, agonist radioligand; conditions: read-out: % inhibition of control specific binding
T14 construct: purchased Cerep (Diversity Profile)
T14 sequence (P32245 whole entry): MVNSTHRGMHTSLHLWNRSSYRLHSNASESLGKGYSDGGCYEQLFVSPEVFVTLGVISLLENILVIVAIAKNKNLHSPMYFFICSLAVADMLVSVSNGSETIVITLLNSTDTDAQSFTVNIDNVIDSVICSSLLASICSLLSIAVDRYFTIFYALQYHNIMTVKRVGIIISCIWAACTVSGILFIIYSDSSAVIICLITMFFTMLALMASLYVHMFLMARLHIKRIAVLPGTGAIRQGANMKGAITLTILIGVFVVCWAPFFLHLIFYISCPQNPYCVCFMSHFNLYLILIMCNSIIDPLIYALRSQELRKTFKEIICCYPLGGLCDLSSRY
Description: as §1

NK1 (h) = molecular target: T15, NK1 (h) (Homo sapiens, UniProt P25103); assay: Cerep binding, agonist radioligand; conditions: read-out: % inhibition of control specific binding
T15 construct: purchased Cerep (Diversity Profile)
Description: as §1

NK2 (h) = molecular target: T16, NK2 (h) (Homo sapiens, UniProt P21452); assay: Cerep binding, agonist radioligand; conditions: read-out: % inhibition of control specific binding
T16 construct: purchased Cerep (Diversity Profile)
T16 sequence (P21452 whole entry): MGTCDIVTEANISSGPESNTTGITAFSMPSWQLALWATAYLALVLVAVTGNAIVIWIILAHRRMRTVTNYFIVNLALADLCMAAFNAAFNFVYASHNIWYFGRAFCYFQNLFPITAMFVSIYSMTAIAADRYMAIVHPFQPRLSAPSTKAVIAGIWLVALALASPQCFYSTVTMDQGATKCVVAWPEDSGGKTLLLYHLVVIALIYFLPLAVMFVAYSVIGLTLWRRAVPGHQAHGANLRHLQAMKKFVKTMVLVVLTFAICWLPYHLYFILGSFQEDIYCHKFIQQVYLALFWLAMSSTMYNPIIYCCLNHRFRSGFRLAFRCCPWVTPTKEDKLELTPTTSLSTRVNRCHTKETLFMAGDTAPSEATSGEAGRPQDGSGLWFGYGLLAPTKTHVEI
Description: as §1

PPAR (h) = molecular target: T17, PPAR (h) (Homo sapiens, UniProt P37231); assay: Cerep binding, agonist radioligand; conditions: read-out: % inhibition of control specific binding
T17 construct: purchased Cerep (Diversity Profile)
Description: as §1

PR (h) = molecular target: T18, PR (h) (Homo sapiens, UniProt P06401); assay: Cerep binding, agonist radioligand; conditions: read-out: % inhibition of control specific binding
T18 construct: purchased Cerep (Diversity Profile)
T18 sequence (P06401 whole entry): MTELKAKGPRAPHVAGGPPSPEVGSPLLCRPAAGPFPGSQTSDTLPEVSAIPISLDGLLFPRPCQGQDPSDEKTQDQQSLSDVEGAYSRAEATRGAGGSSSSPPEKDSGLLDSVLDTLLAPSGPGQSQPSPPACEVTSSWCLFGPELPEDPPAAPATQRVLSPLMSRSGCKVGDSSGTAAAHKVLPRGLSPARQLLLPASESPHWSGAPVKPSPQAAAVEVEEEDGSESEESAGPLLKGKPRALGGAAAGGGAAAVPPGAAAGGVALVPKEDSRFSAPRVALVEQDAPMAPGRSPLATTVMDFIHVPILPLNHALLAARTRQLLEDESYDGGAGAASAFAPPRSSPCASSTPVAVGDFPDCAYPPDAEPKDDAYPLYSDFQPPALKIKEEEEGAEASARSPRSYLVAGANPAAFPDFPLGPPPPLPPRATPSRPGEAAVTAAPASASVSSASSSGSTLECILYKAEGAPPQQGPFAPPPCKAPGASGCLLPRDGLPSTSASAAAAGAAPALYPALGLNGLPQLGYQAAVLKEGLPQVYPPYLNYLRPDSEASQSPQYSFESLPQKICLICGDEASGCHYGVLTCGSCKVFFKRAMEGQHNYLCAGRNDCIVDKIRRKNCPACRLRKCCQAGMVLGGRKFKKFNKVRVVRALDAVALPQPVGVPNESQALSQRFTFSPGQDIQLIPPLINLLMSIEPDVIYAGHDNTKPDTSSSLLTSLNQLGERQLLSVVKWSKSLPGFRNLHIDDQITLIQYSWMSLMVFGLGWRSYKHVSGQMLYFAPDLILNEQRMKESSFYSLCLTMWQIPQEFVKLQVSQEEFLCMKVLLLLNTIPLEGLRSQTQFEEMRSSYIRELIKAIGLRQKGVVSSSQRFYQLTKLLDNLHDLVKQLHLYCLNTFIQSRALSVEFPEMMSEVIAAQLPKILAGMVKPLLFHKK
Description: as §1

TRH1 (h) = molecular target: T19, TRH1 (h) (Homo sapiens, UniProt P34981); assay: Cerep binding, agonist radioligand; conditions: read-out: % inhibition of control specific binding
T19 construct: purchased Cerep (Diversity Profile)
T19 sequence (P34981 whole entry): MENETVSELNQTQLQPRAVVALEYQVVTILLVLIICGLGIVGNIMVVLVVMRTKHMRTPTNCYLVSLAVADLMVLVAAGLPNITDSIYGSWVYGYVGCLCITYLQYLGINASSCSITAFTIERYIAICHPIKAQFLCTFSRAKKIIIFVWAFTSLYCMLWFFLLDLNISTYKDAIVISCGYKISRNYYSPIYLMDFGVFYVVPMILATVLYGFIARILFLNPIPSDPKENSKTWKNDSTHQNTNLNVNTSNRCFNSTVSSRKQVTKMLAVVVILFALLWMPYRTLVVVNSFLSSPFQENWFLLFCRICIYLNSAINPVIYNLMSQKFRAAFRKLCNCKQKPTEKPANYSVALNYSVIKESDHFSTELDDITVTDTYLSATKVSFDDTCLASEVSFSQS
Description: as §1

V1a (h) = molecular target: T20, V1a (h) (Homo sapiens, UniProt P37288); assay: Cerep binding, agonist radioligand; conditions: read-out: % inhibition of control specific binding
T20 construct: purchased Cerep (Diversity Profile)
Description: as §1

V2 (h) = molecular target: T21, V2 (h) (Homo sapiens, UniProt P30518); assay: Cerep binding, agonist radioligand; conditions: read-out: % inhibition of control specific binding
T21 construct: purchased Cerep (Diversity Profile)
Description: as §1

CCK1 (CCKA) (h) = molecular target: T22, CCK1 (CCKA) (h) (Homo sapiens, UniProt P32238); assay: Cerep binding, agonist radioligand (CCK-8S); conditions: for inhibition at 10 µM: read-out: % inhibition of control specific binding
T22 construct: Cerep
T22 sequence (P32238 1-428): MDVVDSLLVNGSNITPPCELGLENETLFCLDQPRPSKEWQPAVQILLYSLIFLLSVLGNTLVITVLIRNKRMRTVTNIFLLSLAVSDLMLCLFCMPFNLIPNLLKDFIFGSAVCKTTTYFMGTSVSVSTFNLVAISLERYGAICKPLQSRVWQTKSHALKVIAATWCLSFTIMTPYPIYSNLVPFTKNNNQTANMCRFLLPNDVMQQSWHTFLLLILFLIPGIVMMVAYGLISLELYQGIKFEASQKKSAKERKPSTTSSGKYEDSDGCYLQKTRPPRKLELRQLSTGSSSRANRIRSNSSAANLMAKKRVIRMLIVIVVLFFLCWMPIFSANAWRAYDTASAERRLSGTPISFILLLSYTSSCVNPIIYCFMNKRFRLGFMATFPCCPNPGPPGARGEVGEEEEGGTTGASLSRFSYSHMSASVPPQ
Description: as §1
Supplementary file pone.0044498.s001.tif: Figure S1 Displacement of CCK-8S (agonist radioligand) from the CCK1 receptor by 4b and C1. (TIF) Click here for additional data file.

ER (non‐selective) (h) = assay: Cerep binding, agonist radioligand; design: species or system human; conditions: 10 μM
Description: as §1

Compound: Nc1ccccc1NC(=O)CCCCCC(=O)Nc1ccccc1 [Compound 4b]
time to complete conversion to amide hydrolysis products (M1 and M2) (Plasma stability): ≤ 6 h
half-life at 5 µM (Plasma stability): 1.9 h
% inhibition of control specific binding [1]: 7%
inhibition at 10 µM (D2S (h)): 3%
inhibition at 10 µM [2]: 0%
inhibition at 10 µM (2 (h)): 2%
inhibition at 10 µM (A2A (h)): 0%
inhibition at 10 µM (A3 (h)): 8%
inhibition at 10 µM (AT2 (h)): 4%
inhibition at 10 µM (BLT1 (LTB4) (h)): 2%
inhibition at 10 µM (CB1 (h)): 7%
inhibition at 10 µM (CB2 (h)): 0%
inhibition at 10 µM (CCK2 (CCKB) (h)): 0%
inhibition at 10 µM (CysLT1 (LTD4) (h)): 0%
inhibition at 10 µM (EP2 (h)): 15%
% inhibition of control specific binding (GABA (non‐selective)): 14%
inhibition at 10 µM (H3 (h)): 0%
inhibition at 10 µM (MC4 (h)): 1%
inhibition at 10 µM (NK1 (h)): 7%
inhibition at 10 µM (NK2 (h)): 5%
inhibition at 10 µM (PPAR (h)): 13%
inhibition at 10 µM (PR (h)): 0%
inhibition at 10 µM (TRH1 (h)): 9%
inhibition at 10 µM (V1a (h)): 10%
inhibition at 10 µM (V2 (h)): 6%
inhibition at 10 µM (CCK1 (CCKA) (h)): 72%
Ki (CCK1 (CCKA) (h); follow up concentration-effect curve): 8.6 µM
% inhibition of control specific binding (ER (non‐selective) (h)): 2%

half-life at 5 µM (Plasma stability): 3.6 h
% inhibition of control specific binding [1]: 19%
inhibition at 10 µM (D2S (h); 10 μM): 2%
inhibition at 10 µM ([2]; 10 μM): 30%
inhibition at 10 µM (2 (h); 10 μM): 2%
inhibition at 10 µM (A2A (h); 10 μM): 9%
inhibition at 10 µM (A3 (h); 10 μM): 11%
inhibition at 10 µM (AT2 (h); 10 μM): 12%
inhibition at 10 µM (BLT1 (LTB4) (h); 10 μM): 0%
inhibition at 10 µM (CB1 (h); 10 μM): 18%
inhibition at 10 µM (CB2 (h); 10 μM): 3%
inhibition at 10 µM (CCK2 (CCKB) (h); 10 μM): 3%
inhibition at 10 µM (CysLT1 (LTD4) (h); 10 μM): 0%
inhibition at 10 µM (EP2 (h); 10 μM): 24%
% inhibition of control specific binding (GABA (non‐selective)): 5%
inhibition at 10 µM (H3 (h); 10 μM): 8%
inhibition at 10 µM (MC4 (h); 10 μM): 0%
inhibition at 10 µM (NK1 (h); 10 μM): 9%
inhibition at 10 µM (NK2 (h); 10 μM): 9%
inhibition at 10 µM (PPAR (h); 10 μM): 13%
inhibition at 10 µM (PR (h); 10 μM): 1%
inhibition at 10 µM (TRH1 (h); 10 μM): 1%
inhibition at 10 µM (V1a (h); 10 μM): 11%
inhibition at 10 µM (V2 (h); 10 μM): 5%
inhibition at 10 µM (CCK1 (CCKA) (h)): 68%
IC50 (CCK1 (CCKA) (h); read-out: IC50, displacement of CCK1 agonist radioligand binding): 6.1 µM
% inhibition of control specific binding (ER (non‐selective) (h)): 4%
Compound: O=C(CCCCCc1nc2ccccc2[nH]1)Nc1ccccc1 [Compound C1, 6-(1-H-benzo[d]imidazol-2-yl)-N-phenylhexanamide]
